According to publication PMC12693156, “Antiprotozoal Aminosteroid Alkaloids from Buxus obtusifolia (Mildbr.) Hutch” (Molecules, 2025):
Read-outs that look alike come from different tables or passages of the source.

Columns and labels:
[1] = system: Plasmodium falciparum (Pf), NF54 strain; experiment: In vitro activity against Plasmodium falciparum (intraerythrocytic form, NF54 strain); format: cell-based; conditions: for IC50: Plasmodium falciparum
Method: (§1) In vitro biological activity against Trypanosoma brucei rhodesiense (bloodstream trypomastigotes, STIB 900 strain), Plasmodium falciparum (intraerythrocytic form, NF54 strain) and cytotoxicity assay against rat skeletal myoblasts (L6 cell line) were carried out at the Swiss Tropical and Public Health Institute (Swiss TPH, Allschwil, Switzerland) in accordance with the established standard procedures, in exactly the same manner and with the same cell lines as described recently.

[2] = system: Trypanosoma brucei rhodesiense (Tbr), STIB 900 strain; experiment: In vitro activity against Trypanosoma brucei rhodesiense (bloodstream trypomastigotes, STIB 900 strain); format: cell-based
Method: as §1

[3] = Cytotoxicity assay against rat skeletal myoblasts (L6 cell line); format: cell-based
Method: as §1

[4] = system: Trypanosoma brucei rhodesiense (Tbr), STIB 900 strain; design: method as in PMID 40076324; conditions: separately tested in a recent study; cited from earlier work
[5] = system: Plasmodium falciparum (Pf), NF54 strain; design: method as in PMID 40076324; conditions: separately tested in a recent study; cited from earlier work
[6] = NF54, mean of two separate IC50 determinations ± absolute deviation, compounds tested as bis- or mono-trifluoroacetates, read-out: Pf IC50
[7] = Trypanosoma brucei rhodesiense, mean of two separate IC50 determinations ± absolute deviation, compounds tested as bis- or mono-trifluoroacetates, read-out: Tbr IC50

SMILES	IC50 [1, 6] [µM]	IC50 [2, 7] [µM]	other results
CN[C@H]1[C@H](O)C[C@]23C[C@]24CC[C@]2(C)[C@@H]([C@H](C)N(C)C)CC[C@@]2(C)[C@@H]4CC[C@H]3C1(C)C [Compound 1, cycloprotobuxoline-C]	28 ± 0.7	6.7 ± 3.3	IC50 [3]: > 100 µM
CN[C@H]1[C@H](O)C[C@]23C[C@]24CC[C@]2(C)[C@@H]([C@H](C)N(C)C)CC[C@@]2(C)[C@@H]4CC[C@H]3[C@]1(C)COC(=O)c1cc(OC)c(OC)c(OC)c1 [Compound 5, 29-trimethoxybenzoyloxy cycloprotobuxoline-C]	0.5	1.6 ± 0.7	IC50 ([1]; NF54, isolated compounds, tested as trifluoroacetate salts, molar IC50 calculated with mass of the salt, read-out: IC50 against Pf (antiplasmodial activity)): < 1 µM
CN[C@@H](C)[C@H]1CC[C@@]2(C)[C@@H]3C=C[C@H]4C(C)(C)[C@@H](N(C)C)CC[C@@]45C[C@@]35CC[C@]12C [Compound 12, deoxycyclovirobuxeine-B]	5.4 ± 1.2	0.8 ± 0.3	IC50 ([2]; Trypanosoma brucei, isolated compounds, tested as trifluoroacetate salts, molar IC50 calculated with mass of the salt, read-out: IC50 against Tbr (antitrypanosomal activity)): < 1 µM
CN[C@@H](C)[C@H]1CC[C@@]2(C)[C@@H]3CC[C@H]4[C@]5(C)COCN(C)[C@H]5CC[C@@]45C[C@@]35CC[C@]12C [Compound 15, N20-demethyl deoxycyclobuxoxazine-A]	5.8 ± 0.4	6.6 ± 3.5	–
CN[C@H]1CC[C@]23C[C@]24CC[C@]2(C)[C@@H](C(C)=O)[C@H](OC)C[C@@]2(C)[C@@H]4CC[C@H]3C1 [Compound 16, obtusibuxeine-A]	13 ± 1.4	22 ± 1.7	SI Pf (selectivity index) ([1]; cytotoxic IC50 (L6) / IC50 Pf): 3; SI Tbr (selectivity index) ([2]; cytotoxic IC50 (L6) / IC50 Tbr): 2; IC50 [3]: 45 ± 5.1 µM
CC(=O)OC1C2OC3(C=CC(NC(=O)c4ccccc4)C(C)(C)C13)CC1=CCC3(C)C(C(C)N(C)C)C(O)CC3(C)C12 (stereo not drawn) [Compound 21, obtusiepoxamine-A]	10 ± 1.1	2.2 ± 0.2	–
CC(=O)O[C@H]1[C@@H](O)[C@@H]2C(=CC[C@]3(C)[C@@H]([C@H](C)N(C)C)CC[C@@]23C)CC2=CC[C@H](NC(=O)c3ccccc3)C(C)(C)[C@@H]21 [Compound 23, 16-deoxyobtusidienolamine-A]	30 ± 6.5	6.5 ± 0.4	–
CCN(CC)CCCC(C)Nc1ccnc2cc(Cl)ccc12 (stereo not drawn) [chloroquine, reference compound]	–	–	IC50 ([1]; NF54, read-out: IC50 Pf): 2 ng/mL; IC50 ([1]; NF54, read-out: Pf IC50): 0.012 µM
Nc1nc(N)nc(Nc2ccc([As]3SCC(CO)S3)cc2)n1 (stereo not drawn) [melarsoprol, reference compound]	–	–	IC50 ([2]; Trypanosoma brucei, read-out: IC50 Tbr): 4 ng/mL; IC50 ([2]; Trypanosoma brucei, read-out: Tbr IC50): 0.013 ± 0.001 µM
COc1cc([C@@H]2c3cc4c(cc3[C@H](O)[C@H]3COC(=O)[C@H]23)OCO4)cc(OC)c1OC [podophyllotoxin, reference compound]	–	–	IC50 ([3]; Table 1, crude extracts and acid-base fractions, mean of two determinations ± absolute deviation, read-out: IC50 Cytotox. L6): 7 ± 2 ng/mL
O=C([O-])C(F)(F)F.[Na+] [sodium trifluoroacetate]	–	–	activity against the target parasites (Tbr) [4]: inactive; activity against the target parasites (Pf) [5]: inactive
